Data reported in patent US8609836B2, “4-aryl-2-anilino-pyrimidines” (Janssen Pharmaceutica NV, priority 2008, dated 2013).

Legend:
PLK4 (h) = PLK4 (h) (Homo sapiens, UniProt O00444); assay: PLK-4 human kinase inhibition, scintillation proximity assay (SPA); format: biochemical; details: read-out: PLK4 pIC50 (converted)
Protocol: (§1) In the SPA technology the activity of the kinase of interest is measured using an appropriate biotinylated substrate that is incubated with the aforementioned kinase protein in the presence of (^33P) radiolabeled ATP. (^33P) Phosphorylation of the substrate is subsequently measured through binding of the phosphorylated substrate to streptavidine coated beads that are based on the scintillant poly(vinyl toluene) (PVT-Beads). The scintillation intensity is detected by imaging on Leadseeker.
(§2) All kinases are pre-diluted to a 10× working concentration prior to addition into the assay. The composition of the dilution buffer for each kinase is detailed below.
(6.0 μCi/ml). After incubation of 60 minutes at room temperature, the reaction is stopped by addition of 40 μL of stop solution containing 8.7 mM EDTA, BSA 0.17%, 0.17% Triton X-100, 1.7 mg/ml SPA beads (GE-healthcare). The plate is centrifuged and read for Scintillation imaging on Leadseeker.

AuroraB (h) = AuroraB (h) (Homo sapiens, UniProt Q96GD4); assay: Aurora-B human kinase inhibition, SPA; format: biochemical; details: read-out: AuroraB pIC50 (converted)
Protocol: (§3) The in vitro inhibition of a panel of kinases was assessed using either the scintillation proximity assay (SPA) as described by Cook, N. D. et al., Advances in Experimental Medicine and Biology (1991), 36; p. 525-528.
as §1, §2
In a final reaction volume of 30 μl, AuroraB (h) (0.5 μg/ml) is incubated with 60 mM Hepes pH 7.5, 3 mM MgCl2, 3 mM MnCl2, 3 μM Na3VO4, 0.05 mg/ml PEG, 2 mM DTT, 3 μM Biotin-[…]-OH, 0.5 μM ATP and 2.2 nM [γ-^33P-ATP] (6.8 μCi/ml). After incubation of 60 minutes at room temperature, the reaction is stopped by addition of 40 μL of stop solution containing 8.7 mM EDTA, BSA 0.17%, 0.17% Triton X-100, 5 mg/ml SPA beads (GE-healthcare). The plate is centrifuged and read for Scintillation imaging on Leadseeker.

GSK3β (h) = GSK3β (h) (Homo sapiens, UniProt P49841); assay: GSK-3β human kinase inhibition, SPA; format: biochemical; details: read-out: GSK3b pIC50 (converted)
Protocol: as §3, §1, §2
In a final reaction volume of 30 μl, GSK3β (h) (1 μg/ml) is incubated with 25 mM Tris pH 7.4, 10 mM MgCl2, 1 mM DTT, 1 μM peptide Biotin-[…]-OH, 1 μM ATP and 2 nM [γ-^33P-ATP] (6.0 μCi/ml). After incubation of 60 minutes at room temperature, the reaction is stopped by addition of 40 μL of stop solution containing 8.7 mM EDTA, BSA 0.17%, 0.17% Triton X-100, 6.25 mg/ml SPA beads (GE-healthcare). The plate is centrifuged and read for Scintillation imaging on Leadseeker.

CDK1/CyclinB (h) = CDK1/CyclinB (h) (Homo sapiens, UniProt P06493); assay: CDK1/CyclinB human kinase inhibition, Invitrogen's FRET assay (Z'lyte); format: biochemical; details: read-out: CDK1 pIC50 (converted)
Protocol: as §3, §2
In a final reaction volume of 10 μl, CDK1/CyclinB (h) (0.2 μg/ml) is incubated with 50 mM Hepes pH 7.5, 10 mM MgCl2, 1 mM EGTA, 0.01% Brij-35, 2 μM Z'lyte Ser/Thr peptide 12 and 10 μM ATP (Invitrogen's FRET assay). After incubation of 60 minutes at room temperature, the reaction is stopped by addition of 5 μL development reagent containing protease mix. After 60 minutes room temperature the development reaction is stopped by adding 5 μl stop solution. The plate is then read in fluorescence plate reader with excitation: 390 nm and dual emission: 460 and 538 nm. Emission ratio is determined to the formula=Emission signal intensity at 460 nm/Emission signal intensity at 538 nm.

PLK1 T210D (h) = PLK1 T210D (h) (Homo sapiens, UniProt P53350, T210D); assay: PLK1 human kinase inhibition, SPA; format: biochemical; details: read-out: PLK1 pIC50 (converted)
Protocol: as §3, §1, §2
In a final reaction volume of 30 μl, PLK1 T210D (h) (0.125 ng/ml) is incubated with 50 mM Hepes pH 8.0, 2 mM MnCl2, 1 mM DTT, 2 μM of peptide Biotin-Tds linker-[…], 0.1 μM ATP and 2 nM [γ-^33P-ATP] (6.0 μCi/ml). After incubation of 40 minutes at room temperature, the reaction is stopped by addition of 40 μL of stop solution containing 8.7 mM EDTA, BSA 0.17%, 0.17% Triton X-100, 25 mg/ml SPA beads (GE-healthcare). The plate is centrifuged and read for Scintillation imaging on Leadseeker.

PLK2 (h) = PLK2 (h) (Homo sapiens, UniProt Q9NYY3); assay: PLK2 human kinase inhibition, SPA; format: biochemical; details: read-out: PLK2 pIC50 (converted)
Protocol: as §3, §1, §2
In a final reaction volume of 30 μl, PLK2 (h) (30 μg/ml) is incubated with 50 mM Hepes pH 8.0, 2 mM MnCl2, 1 mM DTT, 2 μM of peptide Biotin-Tds linker-[…], 0.1 μM ATP and 2 nM [γ-^33P-ATP] (6.0 μCi/ml). After incubation of 20 minutes at room temperature, the reaction is stopped by addition of 40 μL of stop solution containing 8.7 mM EDTA, BSA 0.17%, 0.17% Triton X-100, 25 mg/ml SPA beads (GE-healthcare). The plate is centrifuged and read for Scintillation imaging on Leadseeker.

PLK3 (h) = PLK3 (h) (Homo sapiens, UniProt Q9H4B4); assay: PLK3 human kinase inhibition, SPA; format: biochemical; details: read-out: PLK3 pIC50 (converted)
Protocol: as §3, §1, §2
In a final reaction volume of 30 μl, PLK3 (h) (30 μg/ml) is incubated with 50 mM Hepes pH 8.0, 2 mM MnCl2, 1 mM DTT, 2 μM of peptide Biotin-Tds linker-[…], 0.1 μM ATP and 2 nM [γ-^33P-ATP] (6.0 μCi/ml). After incubation of 20 minutes at room temperature, the reaction is stopped by addition of 40 μL of stop solution containing 8.7 mM EDTA, BSA 0.17%, 0.17% Triton X-100, 25 mg/ml SPA beads (GE-healthcare). The plate is centrifuged and read for Scintillation imaging on Leadseeker.

HCT-116 = assay: Cellular proliferation assay (Alamar blue), HCT-116; format: cell-based; details: Homo sapiens, 10% FCS, 72 hours with compound, Alamar blue 4 h
Protocol: (§4) […] functional properties of these compounds were tested in cellular proliferation assays on a panel of different cell lines in the presence of 10% FCS serum (37° C. and 5% (v/v) CO2). In a first step these cells were seeded and incubated for 24 hours in the absence of compound. In the second step the cells were incubated for 72 hours with the compounds to be tested for 72 hours. The viable cell number was finally assessed in a standard Alamar blue cell viability assay.
(§5) The viable cell number was assessed by incubation for either 4 h (HCT-116, H1299) 6 h (U87-MG) or 24 h (A2780, MDA-MB-231) with Alamar blue (Resazurin 9 μg/ml, K-Ferrocyanide 90 μM, K-Ferricyanide 90 μM) and the converted fluorescent product was quantified on a fluorescent plate reader (544 nm/590 nm). Effect of the compounds is calculated as of on control cells.

H1299 = assay: Cellular proliferation assay (Alamar blue), H1299; format: cell-based; details: Homo sapiens, NCI-H1299; 10% FCS; 72 hours with compound; Alamar blue 4 h
Protocol: as §4, §5

U87-MG = assay: Cellular proliferation assay (Alamar blue), U87-MG; format: cell-based; details: Homo sapiens, U-87 MG; 10% FCS; 72 hours with compound; Alamar blue 6 h; read-out: U87-MG (cellular proliferation assay, Table 4) (converted)
Protocol: as §4, §5

A2780 = assay: Cellular proliferation assay (Alamar blue), A2780; format: cell-based; details: Homo sapiens, 10% FCS, 72 hours with compound, Alamar blue 24 h, read-out: A2780 (cellular proliferation assay, Table 4) (converted)
Protocol: as §4, §5

MDA-MB-231 = assay: Cellular proliferation assay (Alamar blue), MDA-MB-231; format: cell-based; details: Homo sapiens, 10% FCS, 72 hours with compound, Alamar blue 24 h, read-out: MDA/MB231 (cellular proliferation assay, Table 4) (converted)
Protocol: as §4, §5

Chain of AuroraB (h) (Q96GD4 whole entry): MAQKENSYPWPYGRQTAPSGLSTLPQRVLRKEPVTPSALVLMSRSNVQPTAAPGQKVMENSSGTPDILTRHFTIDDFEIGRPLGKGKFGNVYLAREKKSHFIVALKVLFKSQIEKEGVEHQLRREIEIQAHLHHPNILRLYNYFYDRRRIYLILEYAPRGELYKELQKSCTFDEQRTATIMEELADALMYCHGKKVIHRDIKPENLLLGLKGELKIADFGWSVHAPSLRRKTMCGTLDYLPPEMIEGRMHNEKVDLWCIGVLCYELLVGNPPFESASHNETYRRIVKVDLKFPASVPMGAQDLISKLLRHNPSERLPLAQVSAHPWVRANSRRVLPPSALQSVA
Chain of GSK3β (h) (P49841 whole entry): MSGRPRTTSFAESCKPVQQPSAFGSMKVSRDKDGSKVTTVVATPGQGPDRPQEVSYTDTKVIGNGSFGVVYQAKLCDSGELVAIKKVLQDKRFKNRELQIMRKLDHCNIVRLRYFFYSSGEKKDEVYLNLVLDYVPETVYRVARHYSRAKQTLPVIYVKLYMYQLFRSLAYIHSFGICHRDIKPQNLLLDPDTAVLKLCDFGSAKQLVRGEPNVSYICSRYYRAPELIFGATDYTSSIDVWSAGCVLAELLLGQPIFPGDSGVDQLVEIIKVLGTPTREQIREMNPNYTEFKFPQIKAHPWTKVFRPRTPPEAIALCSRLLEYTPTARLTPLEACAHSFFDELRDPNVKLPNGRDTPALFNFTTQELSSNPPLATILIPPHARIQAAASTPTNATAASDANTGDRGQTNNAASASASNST
Chain of CDK1/CyclinB (h) (P06493 whole entry): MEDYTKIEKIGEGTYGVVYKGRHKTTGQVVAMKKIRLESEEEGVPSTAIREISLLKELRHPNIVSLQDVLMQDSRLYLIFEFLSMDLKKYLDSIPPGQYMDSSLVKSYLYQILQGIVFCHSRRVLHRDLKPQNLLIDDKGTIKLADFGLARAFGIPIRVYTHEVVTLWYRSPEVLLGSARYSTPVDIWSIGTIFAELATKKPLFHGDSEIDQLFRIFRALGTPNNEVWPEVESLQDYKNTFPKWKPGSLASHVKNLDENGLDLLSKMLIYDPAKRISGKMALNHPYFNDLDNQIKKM
Chain of CDK1/CyclinB (h) (P14635 whole entry partner): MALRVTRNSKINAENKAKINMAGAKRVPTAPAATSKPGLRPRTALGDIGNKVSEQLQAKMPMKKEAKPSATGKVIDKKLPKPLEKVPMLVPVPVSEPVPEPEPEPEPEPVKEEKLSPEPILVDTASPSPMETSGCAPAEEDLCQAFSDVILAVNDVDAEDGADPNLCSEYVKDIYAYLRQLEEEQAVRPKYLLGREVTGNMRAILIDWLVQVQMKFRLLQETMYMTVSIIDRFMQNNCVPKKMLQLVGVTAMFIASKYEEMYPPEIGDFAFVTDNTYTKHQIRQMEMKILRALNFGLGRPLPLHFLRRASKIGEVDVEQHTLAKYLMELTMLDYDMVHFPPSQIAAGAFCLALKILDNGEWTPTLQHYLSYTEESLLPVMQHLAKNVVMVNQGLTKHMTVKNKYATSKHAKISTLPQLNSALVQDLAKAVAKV
Chain of PLK3 (h) (Q9H4B4 whole entry): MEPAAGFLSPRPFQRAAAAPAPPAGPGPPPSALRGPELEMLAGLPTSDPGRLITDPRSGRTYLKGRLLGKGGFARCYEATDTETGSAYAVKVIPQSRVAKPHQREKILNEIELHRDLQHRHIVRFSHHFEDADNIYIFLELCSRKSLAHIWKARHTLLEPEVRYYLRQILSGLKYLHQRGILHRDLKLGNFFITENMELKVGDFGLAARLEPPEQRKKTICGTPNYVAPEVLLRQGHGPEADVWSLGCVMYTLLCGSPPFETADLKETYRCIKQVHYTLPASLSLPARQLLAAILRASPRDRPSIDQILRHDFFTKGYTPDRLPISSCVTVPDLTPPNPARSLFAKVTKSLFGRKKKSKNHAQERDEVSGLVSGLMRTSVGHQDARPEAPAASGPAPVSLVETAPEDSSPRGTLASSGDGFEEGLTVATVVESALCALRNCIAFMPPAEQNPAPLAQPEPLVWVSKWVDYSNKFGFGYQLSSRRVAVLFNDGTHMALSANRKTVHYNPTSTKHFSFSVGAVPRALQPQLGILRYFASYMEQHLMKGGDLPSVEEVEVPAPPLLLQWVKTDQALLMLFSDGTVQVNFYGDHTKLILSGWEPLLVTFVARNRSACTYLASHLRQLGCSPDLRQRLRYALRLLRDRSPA
Chain of PLK1 T210D (h) (P53350 whole entry T210D): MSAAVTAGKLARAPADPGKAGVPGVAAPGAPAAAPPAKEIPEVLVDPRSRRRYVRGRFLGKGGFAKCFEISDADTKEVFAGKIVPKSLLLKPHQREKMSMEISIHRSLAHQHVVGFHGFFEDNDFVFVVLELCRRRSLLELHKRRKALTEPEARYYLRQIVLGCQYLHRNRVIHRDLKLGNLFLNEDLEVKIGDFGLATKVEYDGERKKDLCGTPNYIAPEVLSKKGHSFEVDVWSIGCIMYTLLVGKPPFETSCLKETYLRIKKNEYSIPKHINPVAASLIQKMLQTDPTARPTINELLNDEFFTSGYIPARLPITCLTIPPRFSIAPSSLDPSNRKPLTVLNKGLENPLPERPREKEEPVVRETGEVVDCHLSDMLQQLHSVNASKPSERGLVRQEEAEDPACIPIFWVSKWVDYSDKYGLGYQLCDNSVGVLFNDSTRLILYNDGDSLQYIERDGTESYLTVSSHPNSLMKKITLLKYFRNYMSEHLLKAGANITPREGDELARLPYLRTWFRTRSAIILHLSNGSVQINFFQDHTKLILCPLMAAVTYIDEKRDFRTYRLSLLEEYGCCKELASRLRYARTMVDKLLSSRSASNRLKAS
Chain of PLK4 (h) (O00444 whole entry): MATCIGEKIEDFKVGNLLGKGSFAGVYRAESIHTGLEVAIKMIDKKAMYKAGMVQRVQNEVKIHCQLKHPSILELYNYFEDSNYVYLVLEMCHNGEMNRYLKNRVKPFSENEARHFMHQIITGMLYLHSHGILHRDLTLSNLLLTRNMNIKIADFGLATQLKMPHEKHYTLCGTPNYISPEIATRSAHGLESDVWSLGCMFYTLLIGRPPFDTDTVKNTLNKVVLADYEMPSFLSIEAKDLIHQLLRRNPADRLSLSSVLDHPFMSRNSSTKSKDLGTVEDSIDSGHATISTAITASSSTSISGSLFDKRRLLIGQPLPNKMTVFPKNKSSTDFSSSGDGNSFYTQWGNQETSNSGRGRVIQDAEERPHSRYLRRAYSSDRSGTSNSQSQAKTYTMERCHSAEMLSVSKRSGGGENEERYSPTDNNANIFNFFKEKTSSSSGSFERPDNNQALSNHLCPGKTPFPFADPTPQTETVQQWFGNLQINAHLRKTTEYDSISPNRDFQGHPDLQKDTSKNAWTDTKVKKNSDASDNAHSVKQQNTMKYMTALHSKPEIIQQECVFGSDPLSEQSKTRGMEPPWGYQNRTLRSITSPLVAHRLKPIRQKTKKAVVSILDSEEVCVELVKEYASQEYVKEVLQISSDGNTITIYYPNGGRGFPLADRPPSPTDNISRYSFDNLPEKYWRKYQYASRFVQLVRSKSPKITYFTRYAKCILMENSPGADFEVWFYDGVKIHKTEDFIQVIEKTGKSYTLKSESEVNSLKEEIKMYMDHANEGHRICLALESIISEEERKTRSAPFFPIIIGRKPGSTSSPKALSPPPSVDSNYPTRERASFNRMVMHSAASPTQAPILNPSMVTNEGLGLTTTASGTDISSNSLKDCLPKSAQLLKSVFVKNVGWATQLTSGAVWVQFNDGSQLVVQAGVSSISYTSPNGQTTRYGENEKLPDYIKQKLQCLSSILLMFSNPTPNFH
Chain of PLK2 (h) (Q9NYY3 whole entry): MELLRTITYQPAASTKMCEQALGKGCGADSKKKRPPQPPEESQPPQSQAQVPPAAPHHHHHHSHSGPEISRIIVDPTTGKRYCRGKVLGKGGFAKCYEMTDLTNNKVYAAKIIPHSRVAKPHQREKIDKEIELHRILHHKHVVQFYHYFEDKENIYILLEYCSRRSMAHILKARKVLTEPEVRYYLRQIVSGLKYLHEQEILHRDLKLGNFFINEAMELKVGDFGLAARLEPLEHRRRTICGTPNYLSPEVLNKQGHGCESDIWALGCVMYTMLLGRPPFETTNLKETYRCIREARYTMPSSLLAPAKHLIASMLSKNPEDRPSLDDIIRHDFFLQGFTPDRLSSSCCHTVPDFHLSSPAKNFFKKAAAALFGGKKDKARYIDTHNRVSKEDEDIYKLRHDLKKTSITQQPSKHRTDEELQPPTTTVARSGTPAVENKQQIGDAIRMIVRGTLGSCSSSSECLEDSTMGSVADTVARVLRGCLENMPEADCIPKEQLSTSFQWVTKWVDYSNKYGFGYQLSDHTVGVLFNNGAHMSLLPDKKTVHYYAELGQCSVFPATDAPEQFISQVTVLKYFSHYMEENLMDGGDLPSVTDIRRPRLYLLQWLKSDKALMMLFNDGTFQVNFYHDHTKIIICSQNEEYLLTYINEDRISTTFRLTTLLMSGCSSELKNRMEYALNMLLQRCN

Structure (SMILES)	IC50 (PLK4 (h))	IC50 (AuroraB (h))	IC50 (GSK3β (h))	IC50 (CDK1/CyclinB (h))	IC50 (PLK1 T210D (h))	IC50 (PLK2 (h))	IC50 (PLK3 (h))	IC50 (HCT-116)	IC50 (H1299)	IC50 (U87-MG)	IC50 (A2780)	IC50 (MDA-MB-231)
O=C1NCCNCc2ccc(cc2)-c2ccnc(n2)Nc2ccc(N3CCOCC3)c(c2)CN[C@H]1Cc1ccccc1 [Compound 117]	2.24 µM	> 10 µM	1 µM	> 10 µM	> 10 µM	> 10 µM	> 10 µM	4.27 µM	7.59 µM	3.89 µM	6.03 µM	> 10 µM
CN1CCNC(=O)CN2CCN(CC2)Cc2cc(Br)cc(c2)Nc2nccc(n2)-c2ccc(cc2)C1 [Compound 129]	1.12 µM	> 10 µM	0.49 µM	4.17 µM	> 10 µM	> 10 µM	> 3.02 µM	8.51 µM	> 10 µM	4.9 µM	> 10 µM	> 10 µM
O=C1NCCCOc2cccc(c2)-c2ccnc(n2)Nc2ccc(N3CCOCC3)c(c2)CN2C[C@H](O)C[C@@H]12 [Compound 99]	3.63 µM	> 10 µM	0.417 µM	> 10 µM	> 10 µM	> 10 µM	> 10 µM	6.92 µM	> 10 µM	6.92 µM	7.76 µM	> 10 µM
O=C1NCc2cccc(c2)-c2ccnc(n2)Nc2cc(ccc2Cl)CN2CCC1CC2 [Compound 123]	8.13 µM	> 10 µM	2.75 µM	1.91 µM	> 10 µM	> 10 µM	> 10 µM	> 10 µM	> 10 µM	> 10 µM	> 10 µM	> 10 µM
CC(C)Nc1cc2cc(c1)Nc1nccc(n1)-c1ccc(cc1)CN(C)CCNC(=O)CN1CCN(CC1)C2 [Compound 128]	1.02 µM	> 10 µM	1.95 µM	1.38 µM	> 10 µM	> 10 µM	> 10 µM	> 10 µM	> 10 µM	7.94 µM	> 10 µM	> 10 µM
CN1CCNC(=O)[C@H](CO)NCc2cc(cc(N3CCOCC3)c2)Nc2nccc(n2)-c2ccc(cc2)C1 [Compound 108]	0.603 µM	6.03 µM	6.61 µM	> 10 µM	> 10 µM	> 3.02 µM	> 10 µM	8.32 µM	> 10 µM	8.91 µM	> 10 µM	> 10 µM

Other lines, results leading:

IC50 (PLK4 (h))	IC50 (AuroraB (h))	IC50 (GSK3β (h))	IC50 (CDK1/CyclinB (h))	IC50 (PLK1 T210D (h))	IC50 (PLK2 (h))	IC50 (PLK3 (h))	IC50 (HCT-116)	IC50 (H1299)	IC50 (U87-MG)	IC50 (A2780)	IC50 (MDA-MB-231)	Structure (SMILES)
1.82 µM	> 10 µM	6.76 µM	> 10 µM	> 10 µM	> 10 µM	> 10 µM	0.355 µM	3.02 µM	1.7 µM	2.34 µM	> 10 µM	CN1CCCNC(=O)CN2CCN(CC2)Cc2cc(cc(N3CCOCC3)c2)Nc2nccc(n2)-c2ccc(cc2)C1 [Compound 136]
5.89 µM	> 10 µM	2.95 µM	> 10 µM	> 10 µM	> 10 µM	> 10 µM	4.79 µM	5.89 µM	> 10 µM	> 10 µM	> 10 µM	COc1ccc2cc1CN1CCC(CC1)C(=O)N(C)CCCN(C)c1ccc(cn1)-c1ccnc(n1)N2 [Compound 85]
